Experimental data published in a melting point compilation (Tetko et al.; mined from patent text by program, amines drawn as free bases though some values may be those of a salt).

SMILES	melting point [°C]
COc1ccc2cc(I)ccc2c1	142 to 143
COc1c(Cl)ccnc1CSc1nc2cc(OC(F)F)ccc2[nH]1	94 to 99
Cc1nnc2n1-c1ccc(C#Cc3cccs3)cc1C(c1ccccc1Cl)=NC2	160 to 163
CCOCCCN(C)Cc1ccc(NC(=O)C2=Cc3cc(-c4ccc(OCC)cc4)ccc3N(C)CC2)cc1	129 to 131
COC(=O)c1cccc(-c2ncc(O)cn2)c1	219 to 223
O=C(O)[C@@H](Cl)[C@H](O)c1ccccc1	98 to 100
C[C@@H](NC(=O)C1CCC1)c1cccc(C(=O)c2ccccc2)c1	90 to 93
Nc1nc2ccccc2c2c1ncn2CCCCNC(=O)c1cccc(C(=O)c2ccccc2)c1	103 to 105
COCCOc1ccccc1-c1cc2[nH]c3ccc(OCc4ccccc4)cc3c2c2c1C(=O)NC2=O	157 to 159
N#CC(C#N)(OC(=O)c1ccc(Cl)c(Cl)c1)c1ccc(Cl)c(Cl)c1	110
CC(C)NC(=O)CN1CCN(c2nnc(N)[nH]2)CC1	225 to 226
O=[N+]([O-])c1cnc2ccc(Br)cn12	160 to 161
Cc1cc(Oc2ccc(S(C)(=O)=O)nc2)cc2cc(C3=NCC(CC(=O)NC[C@@H](C)O)S3)[nH]c12 (stereo partly drawn)	168 to 169
C=CCc1ccc(CCNC(=O)c2cc(Cl)ccc2OC)cc1S(N)(=O)=O	186 to 187
NS(=O)(=O)c1cc(C(=O)O)cc(C(F)(F)F)c1	244 to 246
CCCc1c(OCc2ccc(C=CC(=O)O)c(OC)c2)ccc(C(C)=O)c1O	214 to 216
Cc1ccc(Cc2cnc(NCCCCNc3ccccn3)[nH]c2=O)cn1	184
CS(=O)(=O)c1ccc(C(=O)O)c(Cl)c1OC1COC1	180 to 183
C=Cc1ncn2c1[C@@H]1CCCN1C(=O)c1c(Cl)cccc1-2	213 to 215
COc1ccc(-c2cnc3cc4cnn(C[C@@H]5COC(C)(C)O5)c4cc3n2)cc1F	145 to 151
C[C@@H](C(O)=S)c1cc(C(C)(C)C)c(O)c(C(C)(C)C)c1	111 to 112
COc1ncnc(OC)c1NC(N)=S	210
OC(Cc1ccc(F)cc1)(Cn1cncn1)C1(Cl)CC1 (stereo not drawn)	111

SMILES	melting point [°C]
Cc1nnc2sc3cc(Cl)ccc3n12	186 to 188
Cc1nc2cc(NC(=O)c3cc4cc(C(F)(F)F)cnc4n3Cc3cccc(F)c3)ccc2s1	204 to 206
c1ccc2c(c1)CCn1ccnc1C2=C1CCN(CCn2cccc2)CC1	166
COc1ccc(C(OCC2OC(n3cnc4c(NC(=O)c5ccccc5)ncnc43)C(O)C2O[Si](C)(C)C(C)(C)C)(c2ccccc2)c2ccccc2)cc1 (stereo not drawn)	189
Oc1ccc(-c2ncc3ncc(Nc4ccncc4)cc3n2)cc1	> 268
N#CN=C(Nc1cccnc1)NC(NC(=O)c1cccc(Cl)c1)C(F)(F)C(F)(F)F (stereo not drawn)	183 to 185
CC(C)(C)OC(=O)N1CCc2c(/C=C/[N+](=O)[O-])c3ccccc3n2CC1	227 to 230
CCCCCCCC1=CC(=O)OC1(O)CNc1ccccc1 (stereo not drawn)	172 to 174
CCOC(N)=C(C#N)C(N)=S	170 to 171
COC(=O)CC1=C(C)Cc2cc(F)c(OC)cc21	61 to 62
CC(C)(C)C(=O)OCn1nc2ccc(NCCCN3CCC(OC(c4ccccc4)c4ccccc4)CC3)nn2c1=O	168 to 171
COC(=N)c1ccc(Br)cc1	64 to 65
O=C(C1CC1)N1CC[C@@H](Oc2ccc(F)cc2)[C@H](c2ccccc2)C1 (relative stereo)	113 to 115
N=C(N)Nc1nc(C(=O)NCCCC(CC(=O)O)c2ccccc2)cs1 (racemic)	230
Cc1ccc(-c2csc(C(=O)Nc3nnn[nH]3)n2)cc1	276 to 278
Cc1cc(Br)cn2cc(-c3ccc(C#N)cc3)nc12	209 to 210
N#CCCSC1C2=C(CCCC2)C(=O)N1c1ccc(Cl)cc1F (stereo not drawn)	101 to 103
Cc1nnc2ccc(-c3cccc(NC=O)c3)nn12	265 to 268
CC(=O)Nc1cc(/C=C/C(=O)NCC(=O)N(C)c2ccc(Cl)c(COc3cccc4ccc(C)nc34)c2Cl)ccn1	115 to 131
CCS(=O)(=O)N(Cc1cccnc1)c1ccc(Oc2ccccc2)cc1	79 to 80
CNC(=O)Oc1ccc(N=Cc2ccccc2O)c(C)c1	156 to 157
Cc1nn(CCO)c(C)c1Sc1ccc(Cl)cc1	88.9 to 90.3
COC(=O)c1ccc(NC(=O)c2cc(C(C)C)c(C(C)C)s2)cc1OC	172 to 173

SMILES	melting point [°C]
CCOC(=O)C=C(N)C(C)(C)OC(N)=O	109 to 111
COCC(C#N)=Cc1cc(OC)c2c(c1)OCO2	115
CSc1sc(C2NCCO2)c2c1C(=O)CC(C)(C)C2 (stereo not drawn)	190 to 193
COc1ccc(-c2cc(CN3CCNCC3)c(=O)n(CC3CC3)n2)cc1F	112 to 118
COc1ccc(-c2cc(N(C)c3c(C)cc(C)cc3C)nc(C)n2)cc1OC	124 to 125
Cc1nc2c(N)nc3c(c2n1CCOCCCc1cccnc1)CCCC3	140 to 141
N#Cc1ccc(NC(=O)OCc2cccnc2)cc1	205 to 207
CC(=S)NC[C@H]1CN(c2ccc(N3CCC(=O)N(C)CC3)c(F)c2)C(=O)O1	157 to 158
CC(C)=CCC/C(C)=C/COc1c(I)c(C)c(I)c(C)c1I	65 to 66
COCCN(CCOC)c1ccc(P(=O)(C(=O)c2c(C)cc(C)cc2C)C(=O)c2c(C)cc(C)cc2C)cc1	103 to 106
CCCC(CCC)n1c(CC)nc2c1c(=O)n(C)c(=O)n2Cc1ccc(OC)cc1	120 to 122
c1cncc(-c2cnc3ccccc3c2)c1	117 to 119
NCc1nc(-c2ncn3c2[C@@H]2CCN2C(=O)c2c(Cl)cccc2-3)no1	212 to 214
Nc1cc(O)cc(O)c1	150
Cc1cc(C)c2cc(-c3ccccc3)c(N)nc2n1	191 to 195
O=C(NOCC(O)CN1CCCCC1)Nc1cccc(Cl)c1 (stereo not drawn)	117 to 118
O=Cc1ccc(-c2ccccc2Cl)cc1	124 to 125
CC(=O)NCC1CN(c2ccc(N3CCN(C4=NC(=O)CS4)CC3)c(F)c2)C(=O)O1 (stereo not drawn)	225 to 227
CC(=O)c1ccc(NS(C)(=O)=O)c(Nc2ccc(F)cc2F)c1	113 to 115
CC(C)(C)NC(=S)Nc1cc(Cl)cc(Cl)c1	164 to 165
Cc1csc2ccc3[nH]c4c(c3c12)CNCC4	234
FC(F)(F)CNC(=S)Nc1cncc(Cl)n1	170 to 172

Other lines, results leading:

melting point [°C]	SMILES
159 to 162	COc1ccc(Cl)c(Cc2c(Cl)nc(N3CCOCC3)nc2NS(=O)(=O)c2ccc(C(C)(C)C)cc2)c1
178 to 181	O=C(O)Cc1ccc2c(c1)Cc1ccccc1CC2=O
223 to 225	CCc1nc2c(C)c(Br)c(C)nc2n1Cc1ccc2oc(-c3cccc(F)c3C(=O)O)c(Br)c2c1
184 to 186	CN1CCOc2cc(O)c(C3(O)C(=O)N(Cc4ccc(C(F)(F)F)o4)c4ccccc43)cc21 (stereo not drawn)
210 to 211	CCSc1nc2cccc(C(=O)OC)c2n1Cc1ccc(-c2ccccc2-c2nc(=O)o[nH]2)cc1
142 to 150	O=C1c2ccccc2C2(O)Oc3c(ccc(Cl)c3Cl)C12O (stereo not drawn)
205 to 207	CC(C)(C)CC(=O)c1c(-c2ccc3cc(O)ccc3c2)oc2ccccc12
77	CCC1CCC(c2ccc(-c3cc(F)c(C(F)(F)Oc4cc(F)c(C(F)(F)F)c(F)c4)c(F)c3)c(F)c2)CC1 (stereo not drawn)
122 to 125	CC(C)(OCc1cc2nc(C(F)(F)F)ccc2n1S(=O)(=O)c1ccccc1)C(=O)O
220 to 222	O=c1c2ccccc2c(-c2ccccc2)c2n1CCCC2O (stereo not drawn)
173 to 175	CCOC(=O)C1=C(C)Nc2ccnc(OC(C)C)c2C1c1cccc(C(F)(F)F)c1Cl (stereo not drawn)
134 to 135	CCOC(=O)C1=C(C)NC(SCc2ccc(OC)cc2)=NC1c1cccc(Cl)c1Cl (stereo not drawn)
72 to 75	CN(Cc1cc2c(=O)c(C(=O)NCc3ccc(Cl)cc3)cn(C)c2o1)CC(O)c1ccc(O)cc1 (stereo not drawn)
> 250	O=C1N(Cc2ccc(C(F)(F)F)o2)c2ccccc2C1(O)c1nc2c(cc1O)OCO2 (stereo not drawn)
119 to 138	CC(=O)OCC(=O)Nc1nc2c(Oc3cc(-c4ccc(C(F)(F)F)cc4)ncn3)cccc2s1
> 300	CN1C(=O)N(N=Cc2cccnc2)Cc2cc(C(F)(C(F)(F)F)C(F)(F)F)ccc21
51 to 54	O=C(NCC1CCN(C[C@H]2COc3ccc(Cl)cc3O2)CC1)c1cccc2cccnc12
116 to 117	CON=Cc1cc(=O)c(OCc2ccccc2)c(C(=O)c2ccc(Cc3ccc(F)cc3)o2)o1
147 to 149	CC(C)(C)c1cc(C=O)n(Cc2ccc(C(F)(F)F)cc2Cl)n1
142 to 145	OC1(c2ccc(Cl)cc2)CCN(CCCc2noc3cc(F)ccc23)CC1
225 to 227	O=c1c2cc(Cl)ccc2nc2n1CCC2=Cc1ccccc1
61.5 to 64.4	O=S(=O)(c1ccccc1)c1ccc2c(c1)OCCN2CCN1C=CNC1
146 to 147	NNC(=O)c1sc2cnccc2c1Oc1ccc(C(F)(F)F)cc1
189 to 192	CC(=O)C1CCC2=C(C1)C(=O)c1cc3ccccc3cc1C2=O (stereo not drawn)
100 to 106	Cc1cccc(C)c1N1CCCCS/C1=N/N=C\c1ccc(-c2ncn(-c3ccc(OC(F)(F)F)cc3)n2)cc1
75 to 76	C[C@H](C(=O)OCc1ccccc1)n1ccn(-c2ccc(OCC(F)(F)C(F)F)cc2)c1=O
215 to 217	CCn1c(C)c(C2(c3ccc(OC)cc3OC)OC(=O)c3cc(N(C)C)ccc32)c2ccccc21 (stereo not drawn)
156 to 157	CCOC(Nc1ccccc1)(OCC)c1cc(C(=O)c2ccc(Cl)cc2)nc(C)c1Cl
189 to 191	COc1ccc2[nH]c3c(c2c1)C1C(=O)OC(=O)C1C(c1ccccc1Cl)C3 (stereo not drawn)
153 to 154	COc1cc(COc2nn(Cc3ccc(Oc4ccccc4)cc3)cc2C(=O)O)ccc1OCc1nc(-c2ccco2)oc1C
